Where a name gives a salt, the structure may show the parent alone. Read-outs that look alike come from different tables or passages of the source.
Experiments:
Assay in all cases: AK assay 384-well format, Prestwick library screening
[1] = tested on: A. baumannii strain 98-37-09; type: cell-based, Acinetobacter baumannii; settings: Acinetobacter baumannii, 983709, 3 h
[2] = tested on: E. coli; type: cell-based, Escherichia coli; settings: Escherichia coli, 3 h
[3] = tested on: P. aeruginosa; type: cell-based, Pseudomonas aeruginosa; settings: Pseudomonas aeruginosa, 3 h
[4] = tested on: S. aureus strain USA300-0114; type: cell-based, Staphylococcus aureus; settings: Staphylococcus aureus, USA300, 3 h
[5] = tested on: E. cloacae; type: cell-based, Enterobacter cloacae; settings: Enterobacter cloacae, 3 h
[6] = tested on: K. pneumoniae; type: cell-based, Klebsiella pneumoniae; settings: Klebsiella pneumoniae, 3 h
[7] = tested on: E. faecium; type: cell-based, Enterococcus faecium; settings: Enterococcus faecium, 3 h
[8] = planktonic A. baumannii, 50 μM final drug concentration, positive cutoff 3-fold increase, read-out: AK-based Prestwick library screening result, A. baumannii (fold increase in extracellular AK activity)
[9] = planktonic E. coli, 50 μM final drug concentration, positive cutoff 3-fold increase, read-out: AK-based Prestwick library screening result, E. coli (fold increase in extracellular AK activity)
[10] = planktonic P. aeruginosa, 50 μM final drug concentration, positive cutoff 3-fold increase, read-out: AK-based Prestwick library screening result, P. aeruginosa (fold increase in extracellular AK activity)
[11] = planktonic S. aureus, 50 μM final drug concentration, positive cutoff 3-fold increase, read-out: AK-based Prestwick library screening result, S. aureus (fold increase in extracellular AK activity)
[12] = planktonic E. cloacae, 50 μM final drug concentration, positive cutoff 3-fold increase, read-out: AK-based Prestwick library screening result, E. cloacae (fold increase in extracellular AK activity)
[13] = planktonic K. pneumoniae, 50 μM final drug concentration, positive cutoff 3-fold increase, read-out: AK-based Prestwick library screening result, K. pneumoniae (fold increase in extracellular AK activity)
[14] = planktonic E. faecium, 50 μM final drug concentration, positive cutoff 3-fold increase, read-out: AK-based Prestwick library screening result, E. faecium (fold increase in extracellular AK activity)
[15] = 50 μM final drug concentration, planktonic, cutoff for positive 3-fold increase, read-out: AK-based Prestwick Library Screening Results, A. baumannii (fold increase in extracellular AK activity)
[16] = 50 μM final drug concentration, planktonic, cutoff for positive 3-fold increase, read-out: AK-based Prestwick Library Screening Results, E. coli (fold increase in extracellular AK activity)
[17] = 50 μM final drug concentration, planktonic, cutoff for positive 3-fold increase, read-out: AK-based Prestwick Library Screening Results, P. aeruginosa (fold increase in extracellular AK activity)
[18] = 50 μM final drug concentration, planktonic, cutoff for positive 3-fold increase, read-out: AK-based Prestwick Library Screening Results, S. aureus (fold increase in extracellular AK activity)
[19] = 50 μM final drug concentration, planktonic, cutoff for positive 3-fold increase, read-out: AK-based Prestwick Library Screening Results, E. cloacae (fold increase in extracellular AK activity)
[20] = 50 μM final drug concentration, planktonic, cutoff for positive 3-fold increase, read-out: AK-based Prestwick Library Screening Results, K. pneumoniae (fold increase in extracellular AK activity)
[21] = 50 μM final drug concentration, planktonic, cutoff for positive 3-fold increase, read-out: AK-based Prestwick Library Screening Results, E. faecium (fold increase in extracellular AK activity)
[22] = planktonic A. baumannii, 50 μM final drug concentration, 384-well, cutoff for positive-scoring molecules 3-fold increase, read-out: AK-based Prestwick Library Screening Results: A. baumannii (increase in extracellular AK activity)
[23] = planktonic E. coli, 50 μM final drug concentration, 384-well, cutoff for positive-scoring molecules 3-fold increase, read-out: AK-based Prestwick Library Screening Results: E. coli (increase in extracellular AK activity)
[24] = planktonic P. aeruginosa, 50 μM final drug concentration, 384-well, cutoff for positive-scoring molecules 3-fold increase, read-out: AK-based Prestwick Library Screening Results: P. aeruginosa (increase in extracellular AK activity)
[25] = planktonic S. aureus, 50 μM final drug concentration, 384-well, cutoff for positive-scoring molecules 3-fold increase, read-out: AK-based Prestwick Library Screening Results: S. aureus (increase in extracellular AK activity)
[26] = planktonic E. cloacae, 50 μM final drug concentration, 384-well, cutoff for positive-scoring molecules 3-fold increase, read-out: AK-based Prestwick Library Screening Results: E. cloacae (increase in extracellular AK activity)
[27] = planktonic K. pneumoniae, 50 μM final drug concentration, 384-well, cutoff for positive-scoring molecules 3-fold increase, read-out: AK-based Prestwick Library Screening Results: K. pneumoniae (increase in extracellular AK activity)
[28] = planktonic E. faecium, 50 μM final drug concentration, 384-well, cutoff for positive-scoring molecules 3-fold increase, read-out: AK-based Prestwick Library Screening Results: E. faecium (increase in extracellular AK activity)
[29] = 50 μM final drug concentration, 384-well format, cutoff for positive-scoring molecules 3-fold increase, read-out: AK-based Prestwick Library Screening Results, A. baumannii (increase in extracellular AK activity)
[30] = 50 μM final drug concentration, 384-well format, cutoff for positive-scoring molecules 3-fold increase, read-out: AK-based Prestwick Library Screening Results, E. coli (increase in extracellular AK activity)
[31] = 50 μM final drug concentration, 384-well format, cutoff for positive-scoring molecules 3-fold increase, read-out: AK-based Prestwick Library Screening Results, P. aeruginosa (increase in extracellular AK activity)
[32] = 50 μM final drug concentration, 384-well format, cutoff for positive-scoring molecules 3-fold increase, read-out: AK-based Prestwick Library Screening Results, S. aureus (increase in extracellular AK activity)
[33] = 50 μM final drug concentration, 384-well format, cutoff for positive-scoring molecules 3-fold increase, read-out: AK-based Prestwick Library Screening Results, E. cloacae (increase in extracellular AK activity)
[34] = 50 μM final drug concentration, 384-well format, cutoff for positive-scoring molecules 3-fold increase, read-out: AK-based Prestwick Library Screening Results, K. pneumoniae (increase in extracellular AK activity)
[35] = 50 μM final drug concentration, 384-well format, cutoff for positive-scoring molecules 3-fold increase, read-out: AK-based Prestwick Library Screening Results, E. faecium (increase in extracellular AK activity)

O=C(CCNNC(=O)c1ccncc1)NCc1ccccc1 [Nialamide]
fold induction at 50 µM [1, 8]: 1
fold induction at 50 µM [2, 9]: 1.2
fold induction at 50 µM [3, 10]: 1.2
fold induction at 50 µM [4, 11]: 1.2
fold induction at 50 µM [5, 12]: 1.4
fold induction at 50 µM [6, 13]: 0.9
fold induction at 50 µM [7, 14]: 1.1

COC(=O)C1=C(C)NC(C)=C(C(=O)OCCN(C)Cc2ccccc2)C1c1cccc([N+](=O)[O-])c1 (stereo not drawn) [Nicardipine hydrochloride]
fold induction at 50 µM [1, 15]: 1.3
fold induction at 50 µM [2, 16]: 1.2
fold induction at 50 µM [3, 17]: 1.1
fold induction at 50 µM [4, 18]: 0.6
fold induction at 50 µM [5, 19]: 1.4
fold induction at 50 µM [6, 20]: 1
fold induction at 50 µM [7, 21]: 1.1

CO[C@]12C[C@@H](COC(=O)c3cncc(Br)c3)CN(C)[C@@H]1Cc1cn(C)c3cccc2c13 [Nicergoline]
fold induction at 50 µM [1, 22]: 1.4
fold induction at 50 µM [2, 23]: 1.3
fold induction at 50 µM [3, 24]: 1.2
fold induction at 50 µM [4, 25]: 1.4
fold induction at 50 µM [5, 26]: 1.2
fold induction at 50 µM [6, 27]: 1
fold induction at 50 µM [7, 28]: 1

O=C(Nc1ccc([N+](=O)[O-])cc1Cl)c1cc(Cl)ccc1O [Niclosamide]
fold induction at 50 µM [1, 29]: 0.2
fold induction at 50 µM [2, 30]: 0.1
fold induction at 50 µM [3, 31]: 0.1
fold induction at 50 µM [4, 32]: 0.4
fold induction at 50 µM [5, 33]: 0.5
fold induction at 50 µM [6, 34]: 0.1
fold induction at 50 µM [7, 35]: 0.1

O=C(NCCO[N+](=O)[O-])c1cccnc1 [Nicorandil]
fold induction at 50 µM [1, 29]: 0.8
fold induction at 50 µM [2, 30]: 0.9
fold induction at 50 µM [3, 31]: 0.7
fold induction at 50 µM [4, 32]: 0.6
fold induction at 50 µM [5, 33]: 0.9
fold induction at 50 µM [6, 34]: 0.8
fold induction at 50 µM [7, 35]: 0.9

COC(=O)C1=C(C)NC(C)=C(C(=O)OC)C1c1ccccc1[N+](=O)[O-] [Nifedipine]
fold induction at 50 µM [1, 22]: 1.5
fold induction at 50 µM [2, 23]: 1.4
fold induction at 50 µM [3, 24]: 1
fold induction at 50 µM [4, 25]: 0.5
fold induction at 50 µM [5, 26]: 1.4
fold induction at 50 µM [6, 27]: 0.9
fold induction at 50 µM [7, 28]: 0.9

Cc1c(NC(=O)c2cccnc2)c(=O)n(-c2ccccc2)n1C [Nifenazone]
fold induction at 50 µM [1, 22]: 1.6
fold induction at 50 µM [2, 23]: 1.2
fold induction at 50 µM [3, 24]: 1.2
fold induction at 50 µM [4, 25]: 1.3
fold induction at 50 µM [5, 26]: 1.2
fold induction at 50 µM [6, 27]: 1
fold induction at 50 µM [7, 28]: 1

O=C(O)c1cccnc1Nc1cccc(C(F)(F)F)c1 [Niflumic acid]
fold induction at 50 µM [1, 29]: 0.7
fold induction at 50 µM [2, 30]: 0.6
fold induction at 50 µM [3, 31]: 0.7
fold induction at 50 µM [4, 32]: 0.7
fold induction at 50 µM [5, 33]: 0.8
fold induction at 50 µM [6, 34]: 0.6
fold induction at 50 µM [7, 35]: 0.9

O=C(N/N=C/c1ccc([N+](=O)[O-])o1)c1ccc(O)cc1 [Nifuroxazide]
fold induction at 50 µM [1, 15]: 1.1
fold induction at 50 µM [2, 16]: 1.2
fold induction at 50 µM [3, 17]: 1.2
fold induction at 50 µM [4, 18]: 0.7
fold induction at 50 µM [5, 19]: 1.5
fold induction at 50 µM [6, 20]: 1.8
fold induction at 50 µM [7, 21]: 1

CC1CS(=O)(=O)CCN1/N=C/c1ccc([N+](=O)[O-])o1 (stereo not drawn) [Nifurtimox]
fold induction at 50 µM [1, 8]: 1.5
fold induction at 50 µM [2, 9]: 1.1
fold induction at 50 µM [3, 10]: 1.1
fold induction at 50 µM [4, 11]: 0.8
fold induction at 50 µM [5, 12]: 1.3
fold induction at 50 µM [6, 13]: 1.2
fold induction at 50 µM [7, 14]: 1

CC1(C)NC(=O)N(c2ccc([N+](=O)[O-])c(C(F)(F)F)c2)C1=O [Nilutamide]
fold induction at 50 µM ([1]; 50 μM final drug concentration, […], read-out: AK-based Prestwick Library Screening Results, A. baumannii (fold increase in extracellular AK activity)): 1.2
fold induction at 50 µM ([2]; 50 μM final drug concentration, […], read-out: AK-based Prestwick Library Screening Results, E. coli (fold increase in extracellular AK activity)): 1.2
fold induction at 50 µM ([3]; 50 μM final drug concentration, […], read-out: AK-based Prestwick Library Screening Results, P. aeruginosa (fold increase in extracellular AK activity)): 1.2
fold induction at 50 µM ([4]; 50 μM final drug concentration, […], read-out: AK-based Prestwick Library Screening Results, S. aureus (fold increase in extracellular AK activity)): 1.3
fold induction at 50 µM ([5]; 50 μM final drug concentration, […], read-out: AK-based Prestwick Library Screening Results, E. cloacae (fold increase in extracellular AK activity)): 1.4
fold induction at 50 µM ([6]; 50 μM final drug concentration, […], read-out: AK-based Prestwick Library Screening Results, K. pneumoniae (fold increase in extracellular AK activity)): 1
fold induction at 50 µM ([7]; 50 μM final drug concentration, […], read-out: AK-based Prestwick Library Screening Results, E. faecium (fold increase in extracellular AK activity)): 1

CS(=O)(=O)Nc1ccc([N+](=O)[O-])cc1Oc1ccccc1 [Nimesulide]
fold induction at 50 µM ([1]; read-out: AK-based Prestwick Library Screening Results, A. baumannii (increase in extracellular AK activity)): 0.9
fold induction at 50 µM ([2]; read-out: AK-based Prestwick Library Screening Results, E. coli (increase in extracellular AK activity)): 0.9
fold induction at 50 µM ([3]; read-out: AK-based Prestwick Library Screening Results, P. aeruginosa (increase in extracellular AK activity)): 0.9
fold induction at 50 µM ([4]; read-out: AK-based Prestwick Library Screening Results, S. aureus (increase in extracellular AK activity)): 0.7
fold induction at 50 µM ([5]; read-out: AK-based Prestwick Library Screening Results, E. cloacae (increase in extracellular AK activity)): 1.4
fold induction at 50 µM ([6]; read-out: AK-based Prestwick Library Screening Results, K. pneumoniae (increase in extracellular AK activity)): 0.7
fold induction at 50 µM ([7]; read-out: AK-based Prestwick Library Screening Results, E. faecium (increase in extracellular AK activity)): 0.8

— patent US10004701B2, “Methods and compositions for treating infection” (UNIVERSITY OF ROCHESTER, priority 2012, dated 2018)
